# Test results taken from patent US20240408216A1, “PROTEIN INHIBITOR OR DEGRADING AGENT, PHARMACEUTICAL COMPOSITION CONTAINING SAME AND PHARMACEUTICAL USE” (JING MEDICINE TECHNOLOGY (SHANGHAI) LTD., priority 2021, published 2024).
# Legend:
# human EGFR-DTC = assay: EGFR protein abundance assay (Western blotting), EGFR-DTC; assay type: cell-based; conditions: Ba/F3 cells expressing human EGFR-DTC, 24 h, Western blot
# Description: (§1) Mouse Ba/F3 cells stably expressing human EGFR-DTC, EGFR-LTC, or EGFR-DC were transferred to Petri dishes with RPMI-1640 medium (Gibco, Product No. 11875093) containing 10% fetal bovine serum (FBS, Biological Industries, Product No. 04-001-1A) and 0.1% penicillin/streptomycin (P/S) and incubated in an aseptic incubator at 37° C., 95% relative humidity, and 5% CO2. Cells at the logarithmic growth phase were taken and seeded at a density of 50000 cells/well in 12-well plates (Corning, Product No. 3513) containing 1 mL of medium per well. After 24 h, the compounds disclosed herein with different concentrations were added to the wells at a final DMSO concentration of 0.1%. After 24 h, cells were lysed in SDS lysis buffer (1.45 g of SDS, 0.2 g of Tris base, 6 mL of glycerol, 20 mg of bromophenol blue, 310 mg DTT; brought to 40 mL with d2H2O), and the EGFR levels were detected and analyzed by Western Blotting (immunoblotting) using standard molecular biological techniques. Cell lysates were boiled at 95° C. for 8 min, mixed and centrifuged. The total cell proteins in the lysates were subjected to SDS-PAGE (GenScript, Product No. M00654), transferred to NC membranes (GE, Product No. 1060002) by blotting, incubated in a blocking buffer (TAKARA, Product No. T7131A) at room temperature for 60 min, and co-incubated overnight at 4° C. with the following primary antibodies: anti-EGFR (#4267S, 1:1000), anti-phoso-EGFR (#3777S, 1:1000), anti-GAPDH (#5174S, 1:10000), anti-Actin (#5125 S, 1:10000) (all purchased from Cell Signaling Technology). The samples were washed three times with TBST at room temperature, each for 10 min, and then incubated for 60 minutes in a blocking buffer containing a secondary antibody (#7074S, 1:10000, purchased from Cell Signaling Technology) at room temperature. The samples were washed three times with TBST at room temperature, each for 10 min. Chemiluminescent substrates were added, and an Azure c300 system was used for imaging.
# human EGFR-LTC = biological target: T1, human EGFR-LTC (Homo sapiens, UniProt P00533, C797S/L858R/T790M); assay: EGFR protein abundance assay (Western blotting), EGFR-LTC; assay type: cell-based; conditions: Ba/F3 cells expressing human EGFR-LTC, 24 h, Western blot
# T1 construct: expressed in transfected cells
# Description: as §1
# LT = assay: Cell proliferation IC50 assay (Cell Titer GLO), LT cells; assay type: cell-based; conditions: Mus musculus; Table 7; LT cells (BaF3 with EGFR mutant), 72 h
# Description: (§2) IC50 of compounds in the present invention was determined by Cell Titer GLO reagent from Promega. The procedures are as follows:
# (§3) Tumor cells were cultured in specified medium in an incubator at 37° C. and 5% CO2. The cells were passaged periodically. Cells at the logarithmic growth phase were collected for plating at a density of 2000-4000 cells/well. The next day, the compounds of the present invention were serially diluted and added to the cells, with DMSO being the negative control and the culture media without cells being the blank control. The plate was incubated in the incubator for 72 h. The cell viability assay was performed by adding the detection reagents to the cell culture media according to Cell Titer GLO reagent instructions and detecting luminescent signals on an EnVision microplate reader (PerkinElmer).
# (§4) Inhibition of cell growth by the compounds of the present invention was plotted by Prism Graphpad software for statistically calculating the IC50 of the compound of the present invention.
# DT = assay: Cell proliferation IC50 assay (Cell Titer GLO), DT cells; assay type: cell-based; conditions: Mus musculus; Table 7; DT cells (BaF3 with EGFR mutant), 72 h
# Description: as §2, §3, §4
# BaF3 patent = assay: Cell proliferation IC50 assay (Cell Titer GLO), BaF3 parental cells; assay type: cell-based; conditions: Mus musculus, Table 5, 10 ng/ml mIL3, 72 h
# Description: as §2, §3, §4
# A431 = assay: Cell proliferation IC50 assay (Cell Titer GLO), A431 cells; assay type: cell-based; conditions: Homo sapiens, A-431; Table 5; A431, 72 h; read-out: A431 IC50
# Outline: (§5)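 Cells plated at 2000-4000 per well, next day given serially diluted compound, then grown 72 h at 37 °C, 5% CO2. Viability by CellTiter-Glo luminescence versus DMSO control; IC50 from growth-inhibition curves.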
# [1] = test system: BaF3 (EGFR L858R/T790M/C797S); assay: Cell proliferation IC50 assay (Cell Titer GLO), BaF3 LTC cells; assay type: cell-based; conditions: Mus musculus, Ba/F3 EGFR, Table 5, 72 h
# Outline: as §5
# BaF3 (EGFR L858R/C797S) = BaF3 (EGFR L858R/C797S) (Homo sapiens, UniProt P00533, C797S/L858R, cells depend on it); assay: Cell proliferation IC50 assay (Cell Titer GLO), BaF3 LC cells; assay type: cell-based, mouse; conditions: Table 7, 72 h
# Chain of BaF3 (EGFR L858R/C797S) (P00533 whole entry C797S/L858R): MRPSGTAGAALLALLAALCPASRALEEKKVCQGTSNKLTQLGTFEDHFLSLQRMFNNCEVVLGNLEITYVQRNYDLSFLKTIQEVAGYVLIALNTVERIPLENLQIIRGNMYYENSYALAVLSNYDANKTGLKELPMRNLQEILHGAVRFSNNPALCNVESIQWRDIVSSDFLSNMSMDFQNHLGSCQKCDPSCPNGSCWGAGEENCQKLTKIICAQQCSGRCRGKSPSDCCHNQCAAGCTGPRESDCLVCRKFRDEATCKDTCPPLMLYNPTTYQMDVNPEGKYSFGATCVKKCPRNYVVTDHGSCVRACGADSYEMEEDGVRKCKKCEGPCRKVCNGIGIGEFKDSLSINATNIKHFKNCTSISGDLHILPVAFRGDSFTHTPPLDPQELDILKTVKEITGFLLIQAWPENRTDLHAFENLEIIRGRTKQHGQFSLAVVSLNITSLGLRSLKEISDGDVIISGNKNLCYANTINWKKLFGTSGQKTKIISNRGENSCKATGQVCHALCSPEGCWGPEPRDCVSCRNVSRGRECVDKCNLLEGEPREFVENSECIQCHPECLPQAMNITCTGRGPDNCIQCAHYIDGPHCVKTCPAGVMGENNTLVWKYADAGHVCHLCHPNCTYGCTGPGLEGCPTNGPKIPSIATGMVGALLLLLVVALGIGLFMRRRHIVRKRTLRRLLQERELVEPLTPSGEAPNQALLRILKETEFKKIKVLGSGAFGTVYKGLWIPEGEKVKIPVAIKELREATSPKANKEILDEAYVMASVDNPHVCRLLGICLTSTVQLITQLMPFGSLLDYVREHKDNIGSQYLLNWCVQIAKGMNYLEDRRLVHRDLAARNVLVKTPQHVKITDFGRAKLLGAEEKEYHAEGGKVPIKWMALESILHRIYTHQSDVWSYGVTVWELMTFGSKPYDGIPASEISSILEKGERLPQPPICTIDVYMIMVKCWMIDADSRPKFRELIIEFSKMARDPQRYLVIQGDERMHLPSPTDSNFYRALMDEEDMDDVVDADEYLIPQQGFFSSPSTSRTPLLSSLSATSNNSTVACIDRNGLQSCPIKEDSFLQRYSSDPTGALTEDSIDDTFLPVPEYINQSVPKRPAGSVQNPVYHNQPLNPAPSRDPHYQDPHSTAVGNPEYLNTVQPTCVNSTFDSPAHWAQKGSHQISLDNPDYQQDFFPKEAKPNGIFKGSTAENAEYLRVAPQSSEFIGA
# Description: as §2, §3, §4
# BaF3 (EGFR Del19) = BaF3 (EGFR Del19) (Homo sapiens, UniProt P00533, cells depend on it, form not given); assay: Cell proliferation IC50 assay (Cell Titer GLO), BaF3 D cells; assay type: cell-based, mouse; conditions: Table 7, 72 h
# Chain of BaF3 (EGFR Del19) (P00533 with tags, fused parts or gaps DEL746-750): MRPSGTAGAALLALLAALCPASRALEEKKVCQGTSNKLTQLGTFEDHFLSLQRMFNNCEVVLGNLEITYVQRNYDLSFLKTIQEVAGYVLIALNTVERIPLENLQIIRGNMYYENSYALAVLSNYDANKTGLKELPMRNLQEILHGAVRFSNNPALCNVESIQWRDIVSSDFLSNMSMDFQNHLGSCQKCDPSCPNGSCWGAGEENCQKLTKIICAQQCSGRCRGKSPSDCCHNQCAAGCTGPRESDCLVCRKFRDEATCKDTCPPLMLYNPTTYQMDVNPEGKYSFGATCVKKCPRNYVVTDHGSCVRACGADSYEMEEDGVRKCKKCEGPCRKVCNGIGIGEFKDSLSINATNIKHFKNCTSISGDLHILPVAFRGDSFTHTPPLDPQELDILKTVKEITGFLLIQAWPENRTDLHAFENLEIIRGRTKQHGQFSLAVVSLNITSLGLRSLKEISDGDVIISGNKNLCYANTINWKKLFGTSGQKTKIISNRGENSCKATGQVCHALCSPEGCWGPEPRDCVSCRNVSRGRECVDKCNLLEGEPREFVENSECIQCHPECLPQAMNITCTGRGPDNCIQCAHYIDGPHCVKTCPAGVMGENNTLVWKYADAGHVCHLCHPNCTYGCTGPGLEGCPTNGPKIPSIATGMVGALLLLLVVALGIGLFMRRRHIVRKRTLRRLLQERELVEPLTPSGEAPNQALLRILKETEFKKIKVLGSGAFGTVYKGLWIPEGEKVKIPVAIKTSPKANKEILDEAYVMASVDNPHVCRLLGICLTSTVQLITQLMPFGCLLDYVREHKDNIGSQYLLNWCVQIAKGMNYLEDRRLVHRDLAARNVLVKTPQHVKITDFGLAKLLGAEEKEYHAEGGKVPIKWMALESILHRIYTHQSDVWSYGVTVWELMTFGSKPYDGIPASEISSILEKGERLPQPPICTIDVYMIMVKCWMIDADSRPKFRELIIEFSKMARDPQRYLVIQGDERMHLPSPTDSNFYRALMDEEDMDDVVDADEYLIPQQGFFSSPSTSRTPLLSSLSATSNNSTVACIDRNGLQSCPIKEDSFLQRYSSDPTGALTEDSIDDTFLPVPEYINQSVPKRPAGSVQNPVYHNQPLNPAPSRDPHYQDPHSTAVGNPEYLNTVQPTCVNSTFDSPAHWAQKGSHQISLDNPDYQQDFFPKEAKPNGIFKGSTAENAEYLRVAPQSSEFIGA
# Description: as §2, §3, §4
# [2] = test system: BaF3 (EGFR Del19/T790M/C797S); assay: Cell proliferation IC50 assay (Cell Titer GLO), BaF3 DTC cells; assay type: cell-based; conditions: Mus musculus, Ba/F3 EGFR-Del19/T790M/C797S, Table 5, 72 h
# Outline: as §5
# BaF3 (EGFR Del19/C797S) = biological target: T2, BaF3 (EGFR Del19/C797S) (Homo sapiens, UniProt P00533, C797S, cells depend on it, form not given); assay: Cell proliferation IC50 assay (Cell Titer GLO), BaF3 DC cells; assay type: cell-based, mouse; conditions: Table 7, 72 h
# T2 construct: BaF3 (EGFR Del19/C797S)|DC|RPMI1640 + 10% FBS
# T2 sequence (P00533 with tags, fused parts or gaps DEL746-750/C797S, form open): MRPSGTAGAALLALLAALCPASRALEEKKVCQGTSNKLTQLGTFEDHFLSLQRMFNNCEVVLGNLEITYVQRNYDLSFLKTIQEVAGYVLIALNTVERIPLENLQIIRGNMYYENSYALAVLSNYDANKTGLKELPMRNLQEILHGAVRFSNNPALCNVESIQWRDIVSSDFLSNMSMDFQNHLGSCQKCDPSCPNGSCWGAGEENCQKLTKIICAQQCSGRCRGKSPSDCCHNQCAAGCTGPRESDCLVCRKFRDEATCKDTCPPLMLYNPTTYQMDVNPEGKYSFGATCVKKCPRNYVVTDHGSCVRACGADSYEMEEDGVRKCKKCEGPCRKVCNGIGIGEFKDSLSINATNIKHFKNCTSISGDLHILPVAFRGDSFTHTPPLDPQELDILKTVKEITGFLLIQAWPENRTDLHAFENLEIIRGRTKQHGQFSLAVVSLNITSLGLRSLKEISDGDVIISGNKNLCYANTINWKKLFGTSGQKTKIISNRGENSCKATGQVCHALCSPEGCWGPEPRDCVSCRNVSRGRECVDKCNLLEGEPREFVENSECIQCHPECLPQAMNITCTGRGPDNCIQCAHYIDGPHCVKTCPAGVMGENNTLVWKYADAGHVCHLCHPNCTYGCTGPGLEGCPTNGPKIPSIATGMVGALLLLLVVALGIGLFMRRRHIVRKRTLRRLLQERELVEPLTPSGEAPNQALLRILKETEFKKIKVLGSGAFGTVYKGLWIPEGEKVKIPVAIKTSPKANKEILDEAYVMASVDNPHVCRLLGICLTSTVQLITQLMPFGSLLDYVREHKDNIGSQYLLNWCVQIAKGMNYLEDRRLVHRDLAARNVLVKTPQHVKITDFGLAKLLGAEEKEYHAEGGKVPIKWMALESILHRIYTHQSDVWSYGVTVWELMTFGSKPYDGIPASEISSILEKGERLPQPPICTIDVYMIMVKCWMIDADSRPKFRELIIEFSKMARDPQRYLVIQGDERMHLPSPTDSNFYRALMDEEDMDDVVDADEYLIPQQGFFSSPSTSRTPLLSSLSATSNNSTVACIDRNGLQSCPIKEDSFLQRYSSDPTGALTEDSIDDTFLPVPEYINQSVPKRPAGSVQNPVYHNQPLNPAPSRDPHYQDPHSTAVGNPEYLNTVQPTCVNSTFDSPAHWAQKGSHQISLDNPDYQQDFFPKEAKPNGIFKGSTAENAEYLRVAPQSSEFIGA
# Outline: as §5
# BaF3 (EGFR WT) = assay: Cell proliferation IC50 assay (Cell Titer GLO), BaF3 WT cells; assay type: cell-based; conditions: Mus musculus, Ba/F3 EGFR, Table 5, 10 ng/ml EGF, 72 h
# Outline: as §5
# BaF3 (EGFR L858R) = BaF3 (EGFR L858R) (Homo sapiens, UniProt P00533, L858R, cells depend on it); assay: Cell proliferation IC50 assay (Cell Titer GLO), BaF3 L cells; assay type: cell-based, mouse; conditions: Table 7, 72 h
# Chain of BaF3 (EGFR L858R) (P00533 whole entry L858R): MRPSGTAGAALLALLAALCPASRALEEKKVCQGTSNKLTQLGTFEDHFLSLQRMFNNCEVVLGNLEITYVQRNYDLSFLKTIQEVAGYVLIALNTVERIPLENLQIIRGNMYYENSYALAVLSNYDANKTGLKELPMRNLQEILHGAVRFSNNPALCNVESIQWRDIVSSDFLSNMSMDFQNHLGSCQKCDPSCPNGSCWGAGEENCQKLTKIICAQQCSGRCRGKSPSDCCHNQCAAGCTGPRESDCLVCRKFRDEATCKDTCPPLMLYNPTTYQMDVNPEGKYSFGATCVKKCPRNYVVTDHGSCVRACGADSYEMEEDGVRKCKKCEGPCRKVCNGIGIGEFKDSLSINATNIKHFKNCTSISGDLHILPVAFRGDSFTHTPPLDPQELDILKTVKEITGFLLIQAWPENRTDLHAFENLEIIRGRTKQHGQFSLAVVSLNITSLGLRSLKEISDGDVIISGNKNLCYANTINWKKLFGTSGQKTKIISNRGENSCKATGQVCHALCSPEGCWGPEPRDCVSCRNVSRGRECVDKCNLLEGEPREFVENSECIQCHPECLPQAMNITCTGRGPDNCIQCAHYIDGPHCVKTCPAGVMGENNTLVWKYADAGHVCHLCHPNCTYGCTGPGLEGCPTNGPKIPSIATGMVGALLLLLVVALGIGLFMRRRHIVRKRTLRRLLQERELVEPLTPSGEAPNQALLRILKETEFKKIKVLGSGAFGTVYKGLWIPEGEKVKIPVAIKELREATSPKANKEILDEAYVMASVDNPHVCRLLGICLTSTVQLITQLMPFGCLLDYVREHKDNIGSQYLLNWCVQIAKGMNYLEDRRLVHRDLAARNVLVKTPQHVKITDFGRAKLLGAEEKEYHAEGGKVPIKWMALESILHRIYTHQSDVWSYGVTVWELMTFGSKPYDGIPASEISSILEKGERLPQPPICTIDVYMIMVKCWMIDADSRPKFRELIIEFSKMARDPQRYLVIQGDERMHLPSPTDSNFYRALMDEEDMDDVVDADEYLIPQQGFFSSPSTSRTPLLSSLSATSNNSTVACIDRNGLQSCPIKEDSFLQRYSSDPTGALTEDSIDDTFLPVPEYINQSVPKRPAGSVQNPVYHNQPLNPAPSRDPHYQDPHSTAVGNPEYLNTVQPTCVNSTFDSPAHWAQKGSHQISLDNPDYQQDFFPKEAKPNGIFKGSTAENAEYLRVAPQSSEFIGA
# Description: as §2, §3, §4
Structure (SMILES),DC50 (human EGFR-DTC) [nM],EGFR-DTC Dmax (human EGFR-DTC) [%],DC50 (human EGFR-LTC) [nM],EGFR-LTC Dmax (human EGFR-LTC) [%],IC50 (LT) [nM],IC50 (DT) [nM],IC50 (BaF3 patent) [nM],IC50 (A431) [nM],IC50 [1] [nM],GI50 (BaF3 (EGFR L858R/C797S)) [nM],GI50 (BaF3 (EGFR Del19)) [nM],IC50 [2] [nM],IC50 (BaF3 (EGFR Del19/C797S)) [nM],IC50 (BaF3 (EGFR WT)) [nM],GI50 (BaF3 (EGFR L858R)) [nM]
"CCc1cc(Nc2ncc(Cl)c(Nc3ccccc3P(C)(C)=O)n2)c(OC)cc1N1CCC(N2CCN(CCC#Cc3cccc4c3CN(C3CCC(=O)NC3=O)C4=O)CC2)CC1 (single isomer, unassigned) [Example E5]",9.31,86,< 1,93,,,,,,,,,,,
"CCc1cc(Nc2ncc(Cl)c(Nc3ccccc3P(C)(C)=O)n2)c(OC)cc1N1CCC(N2CCN(CCC#Cc3cccc4c3CN(C3CCC(=O)NC3=O)C4=O)CC2)CC1 (single isomer, unassigned) [Example E6]",3.37,70,10.1,89,,,,,,,,,,,
"COc1cc(N2CCC(N3CCN(CCC#Cc4cccc5c4CN(C4CCC(=O)NC4=O)C5=O)CC3)CC2)ccc1Nc1ncc(Cl)c(Nc2ccccc2P(C)(C)=O)n1 (centres unmarked) [Example C-2, reference compound]",,,,,20.9,13.3,73.8,,,,,,,,
COc1cc(N2CCC3(CCN(CCCC#Cc4cccc5c4CN(C4CCC(=O)NC4=O)C5=O)CC3)CC2)c(C)cc1Nc1ncc(Br)c(Nc2ccc3ccccc3c2P(C)(C)=O)n1 (centres unmarked) [Example E12],,,,,36,24.8,> 4000,> 4000,111,106,7.8,18.3,16.2,> 4000,37.8
COc1cc(N2CCC(N3CCN(CCC#Cc4cccc5c4CN(C4CCC(=O)NC4=O)C5=O)CC3)CC2)c(C2CC2)cc1Nc1ncc(Cl)c(Nc2ccccc2P(C)(C)=O)n1 (centres unmarked) [Example E13],,,,,16.5,7.7,> 4000,> 4000,66.5,128,6.1,19.6,20.4,> 4000,23.5
CCc1cc(Nc2ncc(Cl)c(Nc3ccccc3P(C)(C)=O)n2)c(OC)cc1N1CCC2(CCN(CCCC#Cc3cccc4c3CN(C3CCC(=O)NC3=O)C4=O)CC2)CC1 (centres unmarked) [Example E15],,,,,20.7,13.7,> 4000,> 4000,120,54.4,5.3,10.6,9.1,> 4000,20.1
